Experimental data published in patent US6531512B1, “Method of treating cancer in patients having a deficiency in p53 tumor suppressor gene” (Health Research Inc., priority 1998, dated 2003).
Marks after values point to notes of the source that are not given here.

What was measured:
[1] = tested on: MALME-3M human melanoma cells; assay: Cell growth of MALME-3M cells (Coulter Counter); assay type: cell-based; settings: 10 μM
Protocol: MALME-3M human melanoma cells containing wt-p53 (American Tissue Type Culture Collection, Bethesda, Md.) and human SK-MEL-28 cells containing mt-p53 (American Tissue Type Culture Collection, Bethesda, Md.) were cultured as a monolayer in RPMI 1640 medium containing 10% Nu-Serum (Collaborative Research Products, Bedford, Mass.), 1 mM aminoguanidine, penicillin (50 units/ml) and streptomycin (50 μg/ml) as described by Kramer et al, J. Biol. Chem., 270:2124-32 (1995) and Kramer et al., Cancer Res., 57:5521-5527 (1997).
MALME-3M cells were cultured as described in Example 1. The cells were seeded by adding 1×10^5 cells to a T-25 vented cell culture flask. After 24 hours, the asynchronous cell cultures were treated with 10 μM N^1, N^11-diethylnorspermine (DENSPM) prepared by dissolving DENSPM in distilled water and sterilizing the solution by filtration through a 0.22 micron Millipore membrane. The cells were treated by continuous exposure to DENSPM for 6 days (i.e., the polyamine was added to the cell culture at T=0 and the culture was incubated for the desired amount of time). The number of viable MALME-3M cells were monitored electronically using a Model ZM Coulter Counter (Coulter Electronics, Hialeah, Fla.). Untreated MALME-3M cell cultures were used as controls.
(§1) MALME-3M human melanoma cells were cultured as described in Example 1 and treated continuously with 10 μM DENSPM or 10 μM spermine (SPM) for 48 hours. SK-MEL-28 cells were also cultured as described in Example 1 and treated with 10 μM DENSPM for 24 hours. Untreated cells were used as a control.
(§2) The effect of DENSPM and spermine on cell growth was monitored using a Coulter Counter (see Example 2). The effect on cell cycle was monitored by flow cytometry as described in Example 3.

[2] = tested on: SK-MEL-28 human melanoma cells; assay: Cell cycle distribution of SK-MEL-28 cells by flow cytometry; assay type: cell-based; settings: SK-MEL-28 (mt-p53), attached cells, 10 μM, 24 hours treatment (footnote)
Protocol: MALME-3M cells were cultured as described in Example 1 and treated with 10 μM DENSPM as described in Example 2. Cell cycle arrest was monitored using a FACScan flow cytometry unit (Becton Dickinson, San Jose, Calif.) according to the method of Krishan (1975) J. Cell Biol. 66:[…]. Untreated MALME-3M cell cultures were used as controls.
as §1, §2

[3] = tested on: SK-MEL-28 cells; assay: Apoptosis by proton NMR of membrane lipids (methylene/methyl ratio); assay type: cell-based, human; settings: 10 μM
Protocol: Apoptosis of MALME-3M and SK-MEL-28 cells due to treatment with 10 μM DENSPM was quantified using proton nuclear magnetic resonance (NMR) spectroscopy. NMR was used to detect membrane phospholipid spectral intensity changes which correlate with surface expression of phosphatidylserine, an early marker of apoptosis. Changes in methylene and methyl peaks were detected by the […] described by Blankenberg et al., Blood, 89:3778-3786 (1997).
Intensity changes in membrane lipids was measured using NMR after 72 hours of continuous treatment with 10 μM DENSPM. […] The SK-MEL-28 cells undergo a rapid spectral ratio change which correlates with the massive cell loss seen in FIG. 4. Maximal cell death occurred by 48 hours in SK-MEL-28 cells. The data represent the mean ratio±standard deviation.
For perspective, a methylene to methyl spectral ratio of about 1 is typical of untreated cells while a ratio of about 3 is the maximum attainable with most apoptotic responses. Thus, the ratio of 2.6 observed with DENSPM-treated SK-MEL-28 cells at 48 hours represents a full scale response.

[4] = tested on: cell cycle regulatory proteins, including p53, p21, p27, ppRb, pRb, cyclin D1 and PCNA; assay: Western blot of cell cycle regulatory proteins in MALME-3M cells; assay type: cell-based, human; settings: 10 μM
Protocol: (§3) MALME-3M and SK-MEL-28 cells cultured as described in Example 4 were treated with 10 μM DENSPM for 0 to 48 hours. Western blot analysis of cell cycle regulatory proteins, including p53, p21, p27, ppRb, pRb, cyclin D1 and PCNA was performed following the procedure described by Fogel-Petrovic et al. in Molec. Pharm, 52:69-74 (1997); and Biochemistry, 35:14436-14444 (1996). Antibodies used for detecting the proteins were obtained commercially as follows: p53 from Santa Cruz Biotechnology, Inc. (Santa Cruz, Calif.); PCNA and Cyclin D1 from Oncogene Research Products (Cambridge, Mass.); Rb and p21 from PharMigen (San Diego, Calif.); p27 from Transduction labs (Lexington, Ky.) and β-actin (used to correct for variations in loading) from Sigma Chemical Co. (St. Louis, Mo.). Western blot analysis of each of these proteins was performed at least three times.

[5] = tested on: cell cycle regulatory proteins (p53, p21, p16, p27); assay: Western blot of cell cycle regulatory proteins in SK-MEL-28 cells; assay type: cell-based, human; settings: SK-MEL-28, 10 μM
Protocol: as §3
The effects of 10 μM DENSPM on MALME-3M and SK-MEL-28 cell growth and cell cycle regulatory proteins were determined as described in Examples 2 and 3, respectively. Panel A is a comparison of the effects of DENSPM on cell growth. Panel B is a comparison of cell cycle regulatory proteins. […] In contrast, p16 was not detectable in MALME-3M cells. Data is representative of at least two experiments.

[6] = tested on: SK-MEL-28 human melanoma cells; assay: Cell growth / apoptotic response of SK-MEL-28 cells (Coulter Counter, growth kinetics); assay type: cell-based; settings: SK-MEL-28 (mt-p53), 10 μM, 48 hours

CCNCCCNCCCNCCCNCC [DENSPM, N^1,N^11-diethylnorspermine]
% Control Growth ([1]; MALME-3M (wt-p53), 48 hours): 54%
% Growth Control ([1]; MALME-3M (wt-p53), Table 2 (24 hours treatment)): 83%
time course of viable cell number ([1]; MALME-3M, asynchronous, continuous exposure 6 days): steady growth for the first 24 hours, then a plateau and then began to decline in number from 48 hours onwards
% Total Cells, G1 [2]: 74** %
% Total Cells, G2/M [2]: 9** %
% Total Cells, S [2]: 17** %
time of maximal cell death [3]: ≤ 48 h
methylene to methyl spectral ratio ([3]; 48 hours): 2.6
appearance of the hypophosphorylated Rb (pRb) protein band [4]: about 16 hours
start of increase in p21 [4]: about 12 hours
start of increase in wild type p53 [4]: about 12 hours
time of p21 maximum [4]: 30 h
time of p53 maximum [4]: 30 h
protein levels of PCNA ([4]; 0 to 48 hours): unaffected
p21 protein increase relative to zero treatment time (densitometry, normalized to β-actin) ([4]; 30 hour peak): 5 fold
p53 protein increase relative to zero treatment time (densitometry, normalized to β-actin) ([4]; 30 hour peak): 10 fold
levels of p130, cyclin D1 and cyclin E ([4]; 48 hour time course (data not shown)): relatively constant
Rb phosphorylation state by 48 hours ([4]; 48 hours): pRb was the only species
p27 maximum induction ([4]; at 24 to 30 hours): about 1.5 fold
cdk inhibitors p16 and p27 [5]: not increased
p21 protein induction with treatment [5]: not induced
induction of p53 ([5]; 24 hours): no induction
% Control Growth [6]: 0%
